Measured values as given in publication PMC5903252 (British Journal of Clinical Pharmacology, 2018).
Entries after “also recorded” stand apart in the source; their conditions may differ.

Columns and labels:
PT/INR = test: Prothrombin time/international normalized ratio; type: in vivo, human; settings: part A and part B
aPTT = test: Activated partial thromboplastin time; type: in vivo, human; settings: for Mean aPTT (± SEM) / aPTT % Change from baseline: immediately prior to the end of infusion
[1] = Safety and tolerability, adverse events in healthy subjects; type: in vivo, human
[2] = Plasma pharmacokinetics of BMS-962212 after IV infusion; settings: for Tmax / half-life / AUC(0-inf) / AUC(0-t) / Cmax / clearance / Vd: human, in vivo
Renal safety assessment = type: in vivo, human
rabbit models = settings: preclinical; cited from earlier work
[3] = part A 2-h IV infusion 1.5 mg h^−1
[4] = part A 2-h IV infusion 4 mg h^−1
[5] = part A 2-h IV infusion 10 mg h^−1
[6] = part A 2-h IV infusion 25 mg h^−1
[7] = part B 5-day IV infusion 1 mg h^−1, Japanese subjects
[8] = part B 5-day IV infusion 1 mg h^−1, non-Japanese subjects
[9] = part B 5-day IV infusion 3 mg h^−1, Japanese subjects
[10] = part B 5-day IV infusion 3 mg h^−1, non-Japanese subjects
[11] = part B 5-day IV infusion 9 mg h^−1, Japanese subjects
[12] = part B 5-day IV infusion 9 mg h^−1, non-Japanese subjects
[13] = part B 5-day IV infusion 20 mg h^−1, Japanese subjects
[14] = part B 5-day IV infusion 20 mg h^−1, non-Japanese subjects
[15] = part B 1 mg h^−1, Japanese ethnicity (n = 4), geometric mean (CV%)
[16] = part B 1 mg h^−1, Non-Japanese ethnicity (n = 4), geometric mean (CV%)
[17] = part B 3 mg h^−1, Japanese ethnicity (n = 4), geometric mean (CV%)
[18] = part B 3 mg h^−1, Non-Japanese ethnicity (n = 4), geometric mean (CV%)
[19] = part B 9 mg h^−1, Japanese ethnicity (n = 4), geometric mean (CV%)
[20] = part B 9 mg h^−1, Non-Japanese ethnicity (n = 4), geometric mean (CV%)
[21] = part B 20 mg h^−1, Japanese ethnicity (n = 4), geometric mean (CV%)
[22] = part B 20 mg h^−1, Non-Japanese ethnicity (n = 4), geometric mean (CV%)
[23] = part A panel 1, 1.5 mg h^−1 2-h IV infusion, peak at 12 h after initiation

## CN1CCN(c2cccc3c2CCN(C(=O)/C=C/c2c(-n4cnnn4)ccc(Cl)c2F)[C@@H]3C(=O)Nc2ccc(C(=O)O)cc2)C(=O)C1 [BMS‐962212]
PT/INR
  PT/INR change: did not change; also recorded: no effect on PT/INR
aPTT; [3]
  Mean aPTT (± SEM): 45.8 ± 2.5 s
  aPTT % Change from baseline: 35%
aPTT; [4]
  Mean aPTT (± SEM): 49.2 ± 2.6 s
  aPTT % Change from baseline: 51%
aPTT; [5]
  Mean aPTT (± SEM): 53.0 ± 4.2 s
  aPTT % Change from baseline: 81%
aPTT; [6]
  Mean aPTT (± SEM): 61.3 ± 3.8 s
  aPTT % Change from baseline: 94%
aPTT; part B 20 mg h^−1
  maximum mean aPTT change from baseline: 92%
aPTT; [7]
  Mean aPTT (± SEM): 37.7 ± 2.0 s
  aPTT % Change from baseline: 31%
aPTT; [8]
  Mean aPTT (± SEM): 42.4 ± 1.8 s
  aPTT % Change from baseline: 31%
aPTT; [9]
  Mean aPTT (± SEM): 46.1 ± 1.2 s
  aPTT % Change from baseline: 47%
aPTT; [10]
  Mean aPTT (± SEM): 44.0 ± 1.9 s
  aPTT % Change from baseline: 49%
aPTT; [11]
  Mean aPTT (± SEM): 52.0 ± 1.3 s
  aPTT % Change from baseline: 63%
aPTT; [12]
  Mean aPTT (± SEM): 52.6 ± 6.8 s
  aPTT % Change from baseline: 76%
aPTT; [13]
  Mean aPTT (± SEM): 63.0 ± 4.9 s
  aPTT % Change from baseline: 92%
aPTT; [14]
  Mean aPTT (± SEM): 57.2 ± 4.0 s
  aPTT % Change from baseline: 83%
aPTT; part B, day 1
  time to maximal effect on aPTT after initiation of the IV infusion: approximately 2 h
[1]; 2-h and 5-day IV infusions, healthy subjects
  tolerability: well tolerated
[1]; BMS-962212 groups
  AE frequency: ecchymosis: 1.4%
  AE frequency: flatulence: 1.4%
  AE frequency: headache: 2.9%
  AE frequency: infusion site pain or irritation: 5.9%
  AE frequency: nausea: 2.9%
  AE frequency: upper respiratory tract infection: 2.9%
[1]; Japanese subjects
  frequency of AEs: 17.6%
[1]; all subjects assigned to BMS-962212 (12 of 68)
  subjects reporting AEs: 17.6%
[1]; no dose-limiting AEs observed
  maximum tolerated dose: not established
[1]; non-Japanese subjects
  frequency of AEs: 29.4%
[1]; part A, subjects assigned to BMS-962212 (four of 34)
  subjects reporting AEs: 11.7%
[1]; part B, subjects assigned to BMS-962212 (eight of 34)
  subjects reporting AEs: 23.5%
[1]; parts A and B
  bleeding: no signs of bleeding
  deaths or serious AEs: No deaths or serious AEs were reported
[2]
  Tmax: 1 to 2 h
[2]; 1 mg, t 1/2, part B 1 mg h^−1, Japanese ethnicity (n = 4), mean (CV%)
  half-life: 7.32 h
[2]; 1 mg, t 1/2, part B 1 mg h^−1, Non-Japanese ethnicity (n = 4), mean (CV%)
  half-life: 5.3 h
[2]; 3 mg, t 1/2, part B 3 mg h^−1, Japanese ethnicity (n = 4), mean (CV%)
  half-life: 6.42 h
[2]; 3 mg, t 1/2, part B 3 mg h^−1, Non-Japanese ethnicity (n = 4), mean (CV%)
  half-life: 6.05 h
[2]; 9 mg, t 1/2, part B 9 mg h^−1, Japanese ethnicity (n = 4), mean (CV%)
  half-life: 8.28 h
[2]; 9 mg, t 1/2, part B 9 mg h^−1, Non-Japanese ethnicity (n = 4), mean (CV%)
  half-life: 8.32 h
[2]; 20 mg, t 1/2, part B 20 mg h^−1, Japanese ethnicity (n = 4), mean (CV%)
  half-life: 8.28 h
[2]; 20 mg, t 1/2, part B 20 mg h^−1, Non-Japanese ethnicity (n = 4), mean (CV%)
  half-life: 7.23 h
[2]; iv, 1 mg h^−1
  AUC(0-inf): 6380 ng·h/mL
  AUC(0-t): 6300 ng·h/mL
  Cmax: 58.3 ng/mL
  Tmax: 24 h
[2]; iv, 1 mg h^−1, CL, part B 5-day IV infusion 1 mg h^−1, geometric mean (CV%)
  clearance: 314 mL/min
[2]; iv, 1 mg h^−1, Vz, part B 5-day IV infusion 1 mg h^−1, geometric mean (CV%)
  Vd: 188 L
[2]; iv, 1 mg h^−1, t1/2, part B 5-day IV infusion 1 mg h^−1, geometric mean (CV%)
  half-life: 6.25 h
[2]; iv, 1.5 mg h^−1
  AUC(0-inf): 180 ng·h/mL
  AUC(0-t): 122 ng·h/mL
  Cmax: 81.9 ng/mL
  Tmax: 1.5 h
[2]; iv, 1.5 mg h^−1, CL, part A 2-h IV infusion 1.5 mg h^−1, geometric mean (CV%)
  clearance: 276 mL/min
[2]; iv, 1.5 mg h^−1, Vz, part A 2-h IV infusion 1.5 mg h^−1, geometric mean (CV%)
  Vd: 72.6 L
[2]; iv, 1.5 mg h^−1, t1/2, part A 2-h IV infusion 1.5 mg h^−1, geometric mean (CV%)
  half-life: 2.04 h
[2]; iv, 3 mg h^−1
  AUC(0-inf): 21400 ng·h/mL
  AUC(0-t): 21200 ng·h/mL
  Cmax: 202 ng/mL
  Tmax: 60 h
[2]; iv, 3 mg h^−1, CL, part B 5-day IV infusion 3 mg h^−1, geometric mean (CV%)
  clearance: 280 mL/min
[2]; iv, 3 mg h^−1, Vz, part B 5-day IV infusion 3 mg h^−1, geometric mean (CV%)
  Vd: 165 L
[2]; iv, 3 mg h^−1, t1/2, part B 5-day IV infusion 3 mg h^−1, geometric mean (CV%)
  half-life: 6.22 h
[2]; iv, 4 mg h^−1
  AUC(0-inf): 377 ng·h/mL
  AUC(0-t): 233 ng·h/mL
  Cmax: 182 ng/mL
  Tmax: 2 h
[2]; iv, 4 mg h^−1, CL, part A 2-h IV infusion 4 mg h^−1, geometric mean (CV%)
  clearance: 358 mL/min
[2]; iv, 4 mg h^−1, Vz, part A 2-h IV infusion 4 mg h^−1, geometric mean (CV%)
  Vd: 118 L
[2]; iv, 4 mg h^−1, t1/2, part A 2-h IV infusion 4 mg h^−1, geometric mean (CV%)
  half-life: 3.95 h
[2]; iv, 9 mg h^−1
  AUC(0-inf): 55500 ng·h/mL
  AUC(0-t): 54800 ng·h/mL
  Cmax: 520 ng/mL
  Tmax: 36 h
[2]; iv, 9 mg h^−1, CL, part B 5-day IV infusion 9 mg h^−1, geometric mean (CV%)
  clearance: 324 mL/min
[2]; iv, 9 mg h^−1, Vz, part B 5-day IV infusion 9 mg h^−1, geometric mean (CV%)
  Vd: 216 L
[2]; iv, 9 mg h^−1, t1/2, part B 5-day IV infusion 9 mg h^−1, geometric mean (CV%)
  half-life: 8.65 h
[2]; iv, 10 mg h^−1
  AUC(0-inf): 1050 ng·h/mL
  AUC(0-t): 664 ng·h/mL
  Cmax: 505 ng/mL
  Tmax: 2 h
[2]; iv, 10 mg h^−1, CL, part A 2-h IV infusion 10 mg h^−1, geometric mean (CV%)
  clearance: 320 mL/min
[2]; iv, 10 mg h^−1, Vz, part A 2-h IV infusion 10 mg h^−1, geometric mean (CV%)
  Vd: 126 L
[2]; iv, 10 mg h^−1, t1/2, part A 2-h IV infusion 10 mg h^−1, geometric mean (CV%)
  half-life: 4.68 h
[2]; iv, 20 mg h^−1
  AUC(0-inf): 126000 ng·h/mL
  AUC(0-t): 124000 ng·h/mL
  Cmax: 1170 ng/mL
  Tmax: 60 h
[2]; iv, 20 mg h^−1, CL, part B 5-day IV infusion 20 mg h^−1, geometric mean (CV%)
  clearance: 317 mL/min
[2]; iv, 20 mg h^−1, Vz, part B 5-day IV infusion 20 mg h^−1, geometric mean (CV%)
  Vd: 219 L
[2]; iv, 20 mg h^−1, t1/2, part B 5-day IV infusion 20 mg h^−1, geometric mean (CV%)
  half-life: 7.65 h
[2]; iv, 25 mg h^−1
  AUC(0-inf): 2730 ng·h/mL
  AUC(0-t): 1740 ng·h/mL
  Cmax: 1120 ng/mL
  Tmax: 2 h
[2]; iv, 25 mg h^−1, CL, part A 2-h IV infusion 25 mg h^−1, geometric mean (CV%)
  clearance: 312 mL/min
[2]; iv, 25 mg h^−1, Vz, part A 2-h IV infusion 25 mg h^−1, geometric mean (CV%)
  Vd: 129 L
[2]; iv, 25 mg h^−1, t1/2, part A 2-h IV infusion 25 mg h^−1, geometric mean (CV%)
  half-life: 4.94 h
[2]; iv, CL, range across panels, part A 2-h IV infusion
  clearance: 276 to 358 mL/min
[2]; iv, CL, range across panels, part B 5-day IV infusion
  clearance: 280 to 324 mL/min
[2]; iv, Vss, range across panels, 5-day IV infusion
  Vd: 164 to 218 L
[2]; iv, Vz, range across panels, 2-h IV infusion
  Vd: 72 to 129 L
[2]; t1/2 range over all dose groups, part B, Japanese subjects
  half-life: 6.42 to 8.28 h
[2]; t1/2 range over all dose groups, part B, non-Japanese subjects
  half-life: 6.05 to 8.32 h
[2]; [15]
  Steady‐state concentration: 55.81 (20.5) ng ml ^−1
  Weight‐corrected steady‐state concentration: 4.21 (21.6) kg μg.ml ^−1
[2]; [16]
  Steady‐state concentration: 49.88 (27.3) ng ml ^−1
  Weight‐corrected steady‐state concentration: 4.34 (15.5) kg μg.ml ^−1
[2]; [17]
  Steady‐state concentration: 188.03 (17.9) ng ml ^−1
  Weight‐corrected steady‐state concentration: 14.33 (32.9) kg μg.ml ^−1
[2]; [18]
  Steady‐state concentration: 157.76 (12.9) ng ml ^−1
  Weight‐corrected steady‐state concentration: 14.10 (22.7) kg μg.ml ^−1
[2]; [19]
  Steady‐state concentration: 439.27 (18.9) ng ml ^−1
  Weight‐corrected steady‐state concentration: 29.60 (18.9) kg μg.ml ^−1
[2]; [20]
  Steady‐state concentration: 458.34 (18.9) ng ml ^−1
  Weight‐corrected steady‐state concentration: 34.47 (23.5) kg μg.ml ^−1
[2]; [21]
  Steady‐state concentration: 1161.68 (17.7) ng ml ^−1
  Weight‐corrected steady‐state concentration: 76.07 (30.1) kg μg.ml ^−1
[2]; [22]
  Steady‐state concentration: 887.21 (23.3) ng ml ^−1
  Weight‐corrected steady‐state concentration: 70.57 (32.4) kg μg.ml ^−1
[2]; parts A and B
  dose proportionality: demonstrated dose proportionality
Renal safety assessment; panel 1A, 1.5 mg h^−1 2-h IV infusion, day −2 vs day 1, and vs placebo
  iohexol plasma clearance (GFR): No clinically relevant differences
Renal safety assessment; [23]
  serum creatinine mean increase: 0.28 mg/dL
  serum creatinine median increase: 0.35 mg/dL
Renal safety assessment; part A panel 1, 1.5 mg h^−1, 12 h postdose
  mean percentage decrease in eGFR (based on serum creatinine): −22.58%
Rabbit models
  antithrombotic efficacy and haemostasis: shows antithrombotic efficacy at doses which preserve haemostasis
